# Results: PMC5469811, “Identification of GXXXXG motif in Chrysophsin-1 and its implication in the design of analogs with cell-selective antimicrobial and anti-endotoxin activities” (Scientific Reports, 2017)
# Residues, ends and D or L forms follow the SMILES beside them.
# How the values were obtained:
# E. coli ATCC 25922 [1] = assay type: cell-based, Escherichia coli; conditions: E. coli ATCC 25922
# Procedure: (§1) E. coli ATCC25922 was grown to 10^6 CFU/ml in fresh MH broth with various divalent and monovalent salts at their physiological concentrations. Serial dilutions of chrysophsin-1 and its variants prepared with the same MH broth were added to the E. coli ATCC 25922 suspensions. The bacteria were incubated at 37 °C in a shaking incubator for 18 h and the MIC values of individual peptides against E. coli ATCC 25922 were determined. Thermal tolerance of Chrysophsin-1 and its variants was checked by incubating the peptides at 4 °C, 60 °C and 90 °C for 1 h prior to MIC determination. The antibacterial activity in presence of serum was carried out by adding a final concentration of 10% fetal bovine serum in the assay diluents containing 0.4% BSA, 0.02% glacial acetic acid. The subsequent steps in both the experiments were consistent with the MIC determination method.
# E. coli (ATCC 25922) = assay type: cell-based, Escherichia coli; conditions: E. coli (ATCC 25922)
# Procedure: as §1
# [2] = system: Candida parapsilosis (ATCC 22019); assay: microbe, parasite or virus in culture; assay type: cell-based; conditions: Candida parapsilosis (ATCC 22019); NCCLS micro broth dilution, 35 °C, 48 h, absorbance 492 nm; read-out: Minimum inhibitory concentration (MIC)
# Procedure: (§2) The anti- fungal activity of peptides was performed according to the standard micro broth dilution technique as per NCCLS guidelines. These plates were incubated in a moist chamber at 35 °C, and an absorbance at 492 nm was recorded on a VersaMax microplate reader after 48 h for C. albicans ATCC 10231 and C. parapsilosis ATCC 22019 and 72 h for C. neoformans.
# [3] = system: Candida albicans (ATCC 10231); assay: microbe, parasite or virus in culture; assay type: cell-based; conditions: Candida albicans (ATCC 10231); NCCLS micro broth dilution, 35 °C, 48 h, absorbance 492 nm; read-out: Minimum inhibitory concentration (MIC)
# Procedure: as §2
# Cryptococcus neoformans = assay: microbe, parasite or virus in culture; assay type: cell-based; conditions: Cryptococcus neoformans; NCCLS micro broth dilution, 35 °C, 72 h, absorbance 492 nm; read-out: Minimum inhibitory concentration (MIC)
# Procedure: as §2
# [4] = system: Sporothrix schenckii (Patient isolates); assay: microbe, parasite or virus in culture; assay type: cell-based; conditions: Sporothrix schenckii (patient isolates); NCCLS micro broth dilution, 35 °C; read-out: Minimum inhibitory concentration (MIC)
# [5] = system: Staphylococcus aureus (ATCC 700699 MRSA); assay: microbe, parasite or virus in culture; assay type: cell-based; conditions: Staphylococcus aureus (ATCC 700699 MRSA); averages of three repeats; read-out: Minimum inhibitory concentration (MIC)
# Procedure: (§3) Antibacterial assay against various Gram-positive and Gram-negative strains of bacteria was performed by the serial two-fold dilution method according to the previously reported procedure, [36]. The antibacterial assays were repeated thrice and the averages of these MIC values were reported.
# [6] = system: Staphylococcus aureus (ATCC 33592) Methicillin resistant Genatmicin resistant; assay: microbe, parasite or virus in culture; assay type: cell-based; conditions: Staphylococcus aureus (ATCC 33592), methicillin and gentamicin resistant; averages of three repeats; read-out: Minimum inhibitory concentration (MIC)
# Procedure: as §3
# [7] = system: Staphylococcus aureus (ATCC 700698 MRSA); assay: microbe, parasite or virus in culture; assay type: cell-based; conditions: Staphylococcus aureus (ATCC 700698 MRSA); averages of three repeats; read-out: Minimum inhibitory concentration (MIC)
# Procedure: as §3
# [8] = system: Staphylococcus aureus (BAA-44)MDR; assay: microbe, parasite or virus in culture; assay type: cell-based; conditions: Staphylococcus aureus (BAA-44) MDR; averages of three repeats; read-out: Minimum inhibitory concentration (MIC)
# Procedure: as §3
# [9] = system: Staphylococcus aureus (ATCC 29213); assay: microbe, parasite or virus in culture; assay type: cell-based; conditions: Staphylococcus aureus (ATCC 29213); averages of three repeats; read-out: Minimum inhibitory concentration (MIC)
# Procedure: as §3
# [10] = system: Pseudomonas aeruginosa (ATCC BAA-427); assay: microbe, parasite or virus in culture; assay type: cell-based; conditions: Pseudomonas aeruginosa (ATCC BAA-427); averages of three repeats; read-out: Minimum inhibitory concentration (MIC)
# Procedure: as §3
# [11] = system: Escherichia coli (ATCC 25922); assay: microbe, parasite or virus in culture; assay type: cell-based; conditions: Escherichia coli (ATCC 25922); averages of three repeats; read-out: Minimum inhibitory concentration (MIC)
# Procedure: as §3
# [12] = system: Klebsiella pneumoniae (ATCC 27736); assay: microbe, parasite or virus in culture; assay type: cell-based; conditions: Klebsiella pneumoniae (ATCC 27736); averages of three repeats; read-out: Minimum inhibitory concentration (MIC)
# Procedure: as §3
# [13] = system: Escherichia coli (ATCC 9637); assay: microbe, parasite or virus in culture; assay type: cell-based; conditions: Escherichia coli (ATCC 9637); averages of three repeats; read-out: Minimum inhibitory concentration (MIC)
# Procedure: as §3
# [14] = system: Bacillus subtilis (ATCC 6633); assay: microbe, parasite or virus in culture; assay type: cell-based; conditions: Bacillus subtilis (ATCC 6633); averages of three repeats; read-out: Minimum inhibitory concentration (MIC)
# Procedure: as §3
# [15] = system: Staphylococcus aureus (ATCC 25923); assay: microbe, parasite or virus in culture; assay type: cell-based; conditions: Staphylococcus aureus (ATCC 25923); averages of three repeats; read-out: Minimum inhibitory concentration (MIC)
# Procedure: as §3
# E. coli ATCC 25922 [16] = assay: Synergy with conventional antibiotics, checkerboard titration; assay type: cell-based, Escherichia coli
# Procedure: The checkerboard titration method was followed to check the synergy of peptides with other antibiotics. First, 2-fold serial dilutions of the antibiotics and antimicrobial peptides were prepared. Subsequently, 50 μl each of different concentrations of antibiotics and of antimicrobial peptides was mixed and added into 100 μl of log phase bacteria culture in a 96-well plate. The plates were then incubated at 37 °C for 24 h. The fractional inhibitory concentration (FIC) index (FICI) was calculated as follows[39]: FICI=(MICofdrugAincombination)/(MICofdrugAalone)+(MICofdrugBincombination)/(MICofdrugB): FICI < 0.5 is considered to indicate synergy; 0.5 < FICI < 1.0 is considered additive; 1.0 < FICI < 4.0 is considered indifferent; and FICI > 4.0 is considered antagonism.
# S. aureus (ATCC 25923) = assay type: cell-based, Staphylococcus aureus; conditions: S. aureus (ATCC 25923)
# Procedure: as §1
# [17] = peptide incubated 1 h at 4 °C prior to MIC determination
# [18] = peptide incubated 1 h at 60 °C prior to MIC determination
# [19] = peptide incubated 1 h at 90 °C prior to MIC determination
smiles,measurement,setting,value
"CC[C@H](C)[C@H](NC(=O)[C@H](C)NC(=O)[C@H](CCCCN)NC(=O)CNC(=O)[C@H](C)NC(=O)[C@H](Cc1c[nH]cn1)NC(=O)[C@@H](NC(=O)[C@H](C)NC(=O)CNC(=O)[C@H](CCCCN)NC(=O)[C@@H](NC(=O)[C@H](CC(C)C)NC(=O)[C@H](Cc1c[nH]c2ccccc12)NC(=O)CNC(=O)[C@H](Cc1ccccc1)NC(=O)[C@@H](N)Cc1ccccc1)[C@@H](C)CC)[C@@H](C)CC)C(=O)N[C@@H](Cc1c[nH]cn1)C(=O)NCC(=O)N[C@@H](CC(C)C)C(=O)N[C@H](C(=O)N[C@@H](Cc1c[nH]cn1)C(=O)N[C@@H](CCCNC(=N)N)C(=O)N[C@@H](CCCNC(=N)N)C(=O)N[C@@H](CCCNC(=N)N)C(=O)N[C@@H](Cc1c[nH]cn1)C(N)=O)[C@@H](C)CC [Chr-1, reference compound] (H-FFGWLIKGAIHAGKAIHGLIHRRRH-NH2; N-terminus assumed)",Antibacterial activity (MIC) in the presence of 10% FBS,"E. coli ATCC 25922 [1]; 10% fetal bovine serum in assay diluent with 0.4% BSA, 0.02% glacial acetic acid",17.2 µM
same,Antibacterial activity (MIC) in the presence of FeCl3,"E. coli ATCC 25922 [1]; FeCl3 4 μM in MH broth, 37 °C, 18 h",4.3 µM
same,Antibacterial activity (MIC) in the presence of KCl,"E. coli ATCC 25922 [1]; KCl 4.5 mM in MH broth, 37 °C, 18 h",4.3 µM
same,Antibacterial activity (MIC) in the presence of MgCl2,"E. coli ATCC 25922 [1]; MgCl2 1 mM in MH broth, 37 °C, 18 h",8.6 µM
same,Antibacterial activity (MIC) in the presence of NH4Cl,"E. coli ATCC 25922 [1]; NH4Cl 6 μM in MH broth, 37 °C, 18 h",4.3 µM
same,Antibacterial activity (MIC) in the presence of NaCl,"E. coli ATCC 25922 [1]; NaCl 150 mM in MH broth, 37 °C, 18 h",8.3 µM
same,Antibacterial activity (MIC) in the presence of ZnCl2,"E. coli ATCC 25922 [1]; ZnCl2 8 μM in MH broth, 37 °C, 18 h",4.3 µM
same,Antibacterial activity (MIC) after incubating peptide at 4 °C,E. coli (ATCC 25922); [17],3 µM
same,Antibacterial activity (MIC) after incubating peptide at 60 °C,E. coli (ATCC 25922); [18],8.3 µM
same,Antibacterial activity (MIC) after incubating peptide at 90 °C,E. coli (ATCC 25922); [19],8.6 µM
same,MIC,[2],3 µM
same,MIC,[3],6.8 µM
same,MIC,Cryptococcus neoformans,3 µM
same,MIC,[4],13.6 µM
same,MIC,[5],1.6 µM
same,MIC,[6],1.6 µM
same,MIC,[7],3 µM
same,MIC,[8],1.6 µM
same,MIC,[9],1.6 µM
same,MIC,[10],6.8 µM
same,MIC,[11],3 µM
same,MIC,[12],3 µM
same,MIC,[13],3.4 µM
same,MIC,[14],6 µM
same,MIC,[15],3 µM
same,interaction of peptide with chloramphenicol (by FICI),E. coli ATCC 25922 [16],synergy (FICI < 0.5 is considered to indicate synergy)
same,Antibacterial activity (MIC) after incubating peptide at 4 °C,S. aureus (ATCC 25923); [17],3 µM
same,Antibacterial activity (MIC) after incubating peptide at 60 °C,S. aureus (ATCC 25923); [18],12.6 µM
same,Antibacterial activity (MIC) after incubating peptide at 90 °C,S. aureus (ATCC 25923); [19],16.6 µM
